Reference: ChEMBL document CHEMBL1201862, “PubChem BioAssay data set” (2004)
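Cultured in 96-well plates, cells were exposed to test compound for 48 hours across five concentrations. GI50 is the concentration that inhibits growth by half.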 Activity calls are given as the source filed them. No stated cut-off is given here; in the data, active = GI50 up to about 1.1 µM and inactive = higher. Non-standard residues stand in square brackets, D forms with d. Residues, ends and D or L forms follow the SMILES beside them. *: point of attachment. NMeF = CN[CH](Cc1ccccc1)C(=O)O; NMeV = CN[CH](C(=O)O)C(C)C; Boc = CC(C)(C)OC(=O)*

What was measured:
Experiment in all cases: NCI tumour cell line growth inhibition, 48 h
A549 = tested on: A549
ACHN = tested on: ACHN
CAKI-1 = tested on: CAKI-1
HCT-116 = tested on: HCT-116
HOP-92 = tested on: HOP-92
HT-29 = tested on: HT-29
KM12 = tested on: KM12
NCI-H226 = tested on: NCI-H226
OVCAR-3 = tested on: OVCAR-3
OVCAR-8 = tested on: OVCAR-8
SK-MEL-28 = tested on: SK-MEL-28
SK-MEL-2 = tested on: SK-MEL-2
SK-MEL-5 = tested on: SK-MEL-5
SK-OV-3 = tested on: SK-OV-3
SN12C = tested on: SN12C
SNB-75 = tested on: SNB-75
A498 = tested on: A498
LOX IMVI = tested on: LOX IMVI

Compound	GI50 (A549)	GI50 (ACHN)	GI50 (CAKI-1)	GI50 (HCT-116)	GI50 (HOP-92)	GI50 (HT-29)	GI50 (KM12)	GI50 (NCI-H226)	GI50 (OVCAR-3)	GI50 (OVCAR-8)	GI50 (SK-MEL-28)	GI50 (SK-MEL-2)	GI50 (SK-MEL-5)	GI50 (SK-OV-3)	GI50 (SN12C)	GI50 (SNB-75)	GI50 (A498)	GI50 (LOX IMVI)
CC(C)C1CC[C@@H](C)C[C@@]1(O)CC(N)=O (stereo not given in full)	> 100 µM (inactive)	> 100 µM (inactive)	> 100 µM (inactive)	> 100 µM (inactive)	< 0.01 µM (active)	> 100 µM (inactive)	> 100 µM (inactive)	> 100 µM (inactive)	> 100 µM (inactive)	> 100 µM (inactive)	> 100 µM (inactive)	> 100 µM (inactive)	> 100 µM (inactive)	> 100 µM (inactive)	> 100 µM (inactive)	66.2 µM (inactive)	–	–
O=C(CC(=O)N1N=C(n2ccc3ccccc32)CC1c1ccccc1)Nc1ccccc1Cl (stereo not given)	> 100 µM (inactive)	> 100 µM (inactive)	–	> 100 µM (inactive)	32.3 µM (inactive)	> 100 µM (inactive)	> 100 µM (inactive)	–	> 100 µM (inactive)	> 100 µM (inactive)	> 100 µM (inactive)	> 100 µM (inactive)	–	> 100 µM (inactive)	> 100 µM (inactive)	> 100 µM (inactive)	> 100 µM (inactive)	> 100 µM (inactive)
CC(C)N1CN(C(C(=O)N[C@@H]2C(=O)N3C2SC(C)(C)C3C(=O)O)c2ccc(O)cc2)CSC1=S (stereo not given in full)	–	> 100 µM (inactive)	> 100 µM (inactive)	> 100 µM (inactive)	> 100 µM (inactive)	> 100 µM (inactive)	> 100 µM (inactive)	–	41.1 µM (inactive)	> 100 µM (inactive)	> 100 µM (inactive)	> 100 µM (inactive)	> 100 µM (inactive)	> 100 µM (inactive)	> 100 µM (inactive)	> 100 µM (inactive)	> 100 µM (inactive)	> 100 µM (inactive)
O=S1(=O)OCCOS(=O)(=O)C1(Br)Cc1ccccc1	> 100 µM (inactive)	> 100 µM (inactive)	–	> 100 µM (inactive)	> 100 µM (inactive)	> 100 µM (inactive)	–	> 100 µM (inactive)	> 100 µM (inactive)	> 100 µM (inactive)	> 100 µM (inactive)	> 100 µM (inactive)	> 100 µM (inactive)	> 100 µM (inactive)	> 100 µM (inactive)	33 µM (inactive)	> 100 µM (inactive)	> 100 µM (inactive)
N=C1CSC2=NC3=C(CCC/C3=C\c3ccccc3)C(c3ccccc3)N12 (stereo not given)	4.07 µM (inactive)	11.9 µM (inactive)	12.5 µM (inactive)	3.54 µM (inactive)	–	2.97 µM (inactive)	3.7 µM (inactive)	6.38 µM (inactive)	2.72 µM (inactive)	5.92 µM (inactive)	7.5 µM (inactive)	2.27 µM (inactive)	6.31 µM (inactive)	15.1 µM (inactive)	11.5 µM (inactive)	10.6 µM (inactive)	13.9 µM (inactive)	2.26 µM (inactive)
COc1cc(C(=O)C(CO)Oc2ccccc2OC)ccc1O (stereo not given)	> 100 µM (inactive)	> 100 µM (inactive)	> 100 µM (inactive)	> 100 µM (inactive)	88.7 µM (inactive)	> 100 µM (inactive)	> 100 µM (inactive)	> 100 µM (inactive)	> 100 µM (inactive)	> 100 µM (inactive)	> 100 µM (inactive)	–	> 100 µM (inactive)	> 100 µM (inactive)	> 100 µM (inactive)	67 µM (inactive)	–	–
COc1ccc(-c2cc(=O)c3cc(O)ccc3o2)c(OC)c1OC	35.6 µM (inactive)	19.5 µM (inactive)	34.5 µM (inactive)	26.5 µM (inactive)	32.4 µM (inactive)	44.2 µM (inactive)	28.2 µM (inactive)	41.6 µM (inactive)	18.4 µM (inactive)	–	53.7 µM (inactive)	28.3 µM (inactive)	–	35.3 µM (inactive)	32.6 µM (inactive)	23.1 µM (inactive)	–	21.7 µM (inactive)
C=C1C(=O)OC2C1CC[C@H](C)C13OC(=O)CC1[C@@]23C (stereo not given in full)	> 100 µM (inactive)	> 100 µM (inactive)	> 100 µM (inactive)	> 100 µM (inactive)	> 100 µM (inactive)	> 100 µM (inactive)	> 100 µM (inactive)	> 100 µM (inactive)	> 100 µM (inactive)	> 100 µM (inactive)	> 100 µM (inactive)	> 100 µM (inactive)	> 100 µM (inactive)	> 100 µM (inactive)	> 100 µM (inactive)	> 100 µM (inactive)	> 100 µM (inactive)	–
CCC1C(C)c2c([nH]c3ccccc23)C2C(=O)N(c3ccccc3)C(=O)C21 (stereo not given)	17.3 µM (inactive)	18.2 µM (inactive)	–	–	–	12.5 µM (inactive)	15 µM (inactive)	–	13.3 µM (inactive)	14.5 µM (inactive)	17.7 µM (inactive)	–	15.4 µM (inactive)	19.4 µM (inactive)	13.5 µM (inactive)	11.4 µM (inactive)	–	15.7 µM (inactive)
Cc1ccc(NC(=O)C(=O)CC(=O)c2ccccc2)cc1C	> 100 µM (inactive)	> 100 µM (inactive)	56.8 µM (inactive)	60.3 µM (inactive)	> 100 µM (inactive)	> 100 µM (inactive)	35.8 µM (inactive)	> 100 µM (inactive)	33.6 µM (inactive)	> 100 µM (inactive)	> 100 µM (inactive)	–	> 100 µM (inactive)	> 100 µM (inactive)	> 100 µM (inactive)	> 100 µM (inactive)	> 100 µM (inactive)	> 100 µM (inactive)
CC(=O)C1(O)CC2(c3ccccc3)C(=O)C1(c1ccccc1)C(c1ccccc1)=C2c1ccccc1 (stereo not given)	54.6 µM (inactive)	–	> 100 µM (inactive)	30.9 µM (inactive)	80.9 µM (inactive)	> 100 µM (inactive)	> 100 µM (inactive)	> 100 µM (inactive)	> 100 µM (inactive)	> 100 µM (inactive)	–	–	44 µM (inactive)	> 100 µM (inactive)	> 100 µM (inactive)	38.7 µM (inactive)	> 100 µM (inactive)	> 100 µM (inactive)
CC(C)c1cc(C(C)C)c(S(=O)(=O)N=[N+]=[N-])c(C(C)C)c1	> 100 µM (inactive)	> 100 µM (inactive)	> 100 µM (inactive)	> 100 µM (inactive)	> 100 µM (inactive)	46.6 µM (inactive)	> 100 µM (inactive)	> 100 µM (inactive)	> 100 µM (inactive)	> 100 µM (inactive)	> 100 µM (inactive)	–	> 100 µM (inactive)	> 100 µM (inactive)	> 100 µM (inactive)	23 µM (inactive)	–	47 µM (inactive)
CC1=CC(=O)N2C(OC[C@@H]2c2ccccc2)O1 (stereo not given in full)	> 100 µM (inactive)	> 100 µM (inactive)	> 100 µM (inactive)	> 100 µM (inactive)	> 100 µM (inactive)	> 100 µM (inactive)	> 100 µM (inactive)	> 100 µM (inactive)	> 100 µM (inactive)	> 100 µM (inactive)	> 100 µM (inactive)	> 100 µM (inactive)	> 100 µM (inactive)	> 100 µM (inactive)	> 100 µM (inactive)	> 100 µM (inactive)	–	–
CC(C)C(NC(=O)OC(C)(C)C)C(=O)N(C)C(Cc1ccccc1)C(=O)N(C)C(C(=O)O)C(C)C (stereo not drawn) (Boc-Val-[NMeF]-[NMeV]-OH; configuration not given here)	> 100 µM (inactive)	–	–	> 100 µM (inactive)	–	> 100 µM (inactive)	> 100 µM (inactive)	> 100 µM (inactive)	> 100 µM (inactive)	> 100 µM (inactive)	> 100 µM (inactive)	–	> 100 µM (inactive)	> 100 µM (inactive)	> 100 µM (inactive)	–	–	> 100 µM (inactive)
c1cc2ccc1C1NCCCN1CCN1CCCNC1c1ccc(cc1)C1NCCCN1CCN1CCCNC21 (stereo not given)	> 100 µM (inactive)	> 100 µM (inactive)	> 100 µM (inactive)	42.6 µM (inactive)	> 100 µM (inactive)	> 100 µM (inactive)	> 100 µM (inactive)	–	50.7 µM (inactive)	> 100 µM (inactive)	> 100 µM (inactive)	> 100 µM (inactive)	> 100 µM (inactive)	> 100 µM (inactive)	> 100 µM (inactive)	> 100 µM (inactive)	> 100 µM (inactive)	92.3 µM (inactive)
Cc1ccccc1-n1c(N)c(-c2nc3ccccc3[nH]2)sc1=S	31.3 µM (inactive)	35 µM (inactive)	37.8 µM (inactive)	–	–	19.6 µM (inactive)	20.7 µM (inactive)	36 µM (inactive)	20 µM (inactive)	32.8 µM (inactive)	20 µM (inactive)	23.9 µM (inactive)	20.8 µM (inactive)	43.4 µM (inactive)	26.4 µM (inactive)	29.4 µM (inactive)	40.1 µM (inactive)	28.1 µM (inactive)
CN1CCCCC(C(O)(c2ccccc2)c2ccccc2)C1=O (stereo not given)	> 100 µM (inactive)	> 100 µM (inactive)	–	24.8 µM (inactive)	> 100 µM (inactive)	> 100 µM (inactive)	> 100 µM (inactive)	> 100 µM (inactive)	> 100 µM (inactive)	> 100 µM (inactive)	> 100 µM (inactive)	> 100 µM (inactive)	> 100 µM (inactive)	> 100 µM (inactive)	> 100 µM (inactive)	> 100 µM (inactive)	> 100 µM (inactive)	> 100 µM (inactive)
